“And” between values parts separate entries of the source, which are not always exact repeats. Identical values can stand only once.

Assay [1] is described as follows: Binding affinity was measured on opioid receptor delta sites.
Assay [2] in a line: Affinity for opioid receptor delta sites.

As a reminder, the Ki is the equilibrium dissociation constant of an inhibitor or competing ligand from its target. Consider `O=C(Cc1ccc(C(F)(F)F)cc1)N1CCc2ccccc2C1CN1CCCCC1` (stereo unspecified), for which the Ki in assay [1] was above 1000 nM.

In the case of `O=C(Cc1ccc(Cl)c(Cl)c1)N1CCc2sccc2C1CN1CCCC1` (stereo unspecified), in assay [2], the Ki is 153 nM.

The compound `O=C(Cc1ccc(Cl)c(Cl)c1)N1CCc2c([nH]c3ccccc23)C1CN1CCCC1` (stereo unspecified) came in with a Ki in assay [1] above 1000 nM.

With `O=C(Cc1ccc(Cl)c(Cl)c1)N1CCCC[C@H]1CN1CCCC1` [2-(3,4-Dichloro-phenyl)-1-(2-pyrrolidin-1-ylmethyl-piperidin-1-yl)-ethanone], in assay [2], the Ki was 1000 nM.

In assay [2], `O=C(Cc1ccc(Cl)c(Cl)c1)N1CCc2sccc2C1CN1CCCCC1` (stereo unspecified) showed a Ki above 1000 nM.

On to `O=C(Cc1ccc(Cl)c(Cl)c1)N1CCc2[nH]c3ccccc3c2C1CN1CCCC1` (stereo unspecified), for which, in assay [2], the Ki was above 1000 nM.

`O=C(Cc1ccc(C(F)(F)F)cc1)N1CCCC[C@H]1CN1CCCC1` [1-(2-Pyrrolidin-1-ylmethyl-piperidin-1-yl)-2-(4-trifluoromethyl-phenyl)-ethanone] displayed a Ki in assay [1] of 1000 nM.

Regarding `O=C(Cc1ccc(Cl)c(Cl)c1)N1CCc2ccsc2C1CN1CCCC1` (stereo unspecified), the affinity in assay [2], expressed as Ki, was 362 nM.

For `O=C(Cc1ccc(C(F)(F)F)cc1)N1CCc2sccc2C1CN1CCCCC1` (stereo unspecified), in assay [2], the Ki is above 1000 nM.

As to `O=C(Cc1ccc(C(F)(F)F)cc1)N1CCc2ccccc2[C@H]1CN1CCCC1`, the Ki in assay [1] is > 1000 nM and 149 nM.

As for `CN(C)CC1c2ccccc2CCN1C(=O)Cc1ccc(Cl)c(Cl)c1` (stereo unspecified), in assay [1], affinity was put at a Ki of 746 nM.

Source of the values: BindingDB's records for doi:10.1021/jm00112a042 (Zambeletti Research Laboratories, 1991).
